Test results from patent EP0802184B1, “N-Benzyl-2-phenylindoles as estrogenic agents” (Wyeth, priority 1996, dated 1997).

Experiments:
Ishikawa cells = assay: Ishikawa Cell Alkaline Phosphatase Assay; type: cell-based, human; settings: for % Activation (Compound + 1 nM 17β-estradiol): 10^-6 M compound + 10^-9 M 17β-estradiol; for % Activation (Compound + 1 nM 17β-estradiol) / % Activation: 48 h; for % Activation: compound alone, percent of response related to 1 nM 17β-estradiol
Protocol: Cells were treated for 48 h prior to assay. […] Sample population for at each dose was n=8. […] Plates are placed at -80°C for a minimum of 15 minutes. Plates are thawed at 37°C followed by the addition of 150μL of 0.1 M Tris-HCl, pH 9.8, containing 4 mM para-nitrophenylphosphate (pNPP) to each well (final concentration, 3 mM pNPP). Absorbance and slope calculations were made using the […] Application program (Bio-Tek Instruments, Inc., Winooski, VT). […] Various compounds were assayed for estrogenic activity by the alkaline phosphatase method and corresponding ED50 values (95% C.I.) were calculated. The four listed in the following were used as reference standards: A description of such methods is provided by Holinka, […]., Kuramoto, H. and Gurpide, E. (1986) Effects of steroid hormones and antisteroids on alkaline phosphatase activity in human endometrial cancer cells (Ishikawa Line). Cancer Research, 46:2771-2774, and by […]. and by […] simple and sensitive microtiter plate estrogen bioassay based on stimulation alkaline phosphatase in Ishikawa cells; […] Endocrinology, 6:2757-2762.

estrogen receptor [1] = molecular target: T1, estrogen receptor (Homo sapiens, UniProt P03372); assay: In vitro estrogen receptor binding assay (competition with [3H]-17β-estradiol); set-up: expressed in transfected cells; host or cells: CHO cells (ribosome-free cytosol); settings: relative to 17β-estradiol=100; cytosol of CHO cells overexpressing the estrogen receptor
T1 sequence (P03372 1-595): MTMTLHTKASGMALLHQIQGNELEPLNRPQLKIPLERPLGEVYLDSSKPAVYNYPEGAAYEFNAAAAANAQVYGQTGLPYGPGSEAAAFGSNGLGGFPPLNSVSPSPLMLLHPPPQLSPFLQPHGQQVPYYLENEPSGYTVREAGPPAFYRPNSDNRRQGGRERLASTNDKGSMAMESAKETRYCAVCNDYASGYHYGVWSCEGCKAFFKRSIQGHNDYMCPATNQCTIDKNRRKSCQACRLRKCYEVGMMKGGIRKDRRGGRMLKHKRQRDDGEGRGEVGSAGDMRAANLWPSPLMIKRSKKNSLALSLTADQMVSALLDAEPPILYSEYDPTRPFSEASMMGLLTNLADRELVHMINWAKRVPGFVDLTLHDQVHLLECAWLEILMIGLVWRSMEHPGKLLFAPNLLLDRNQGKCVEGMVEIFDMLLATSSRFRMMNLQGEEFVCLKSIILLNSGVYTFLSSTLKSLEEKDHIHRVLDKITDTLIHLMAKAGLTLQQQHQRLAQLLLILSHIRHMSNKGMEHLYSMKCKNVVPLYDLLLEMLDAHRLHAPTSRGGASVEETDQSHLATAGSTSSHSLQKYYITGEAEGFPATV
Protocol: CHO cells overexpressing the estrogen receptor were grown in 150 mm^2 dishes in DMEM + 10% dextran coated charcoal, stripped fetal bovine serum. The plates were washed twice with PBS and once with 10mM Tris-HCl, pH 7.4, 1mM EDTA. Cells were harvested by scraping the surface and then the cell suspension was placed on ice. Cells were disrupted with a hand-held motorized tissue grinder using two, 10-second bursts. The crude preparation was centrifuged at 12,000g for 20 minutes followed by a 60 minute spin at 100,000g to produce a ribosome free cytosol. The cytosol was then frozen and stored at -80°C. Protein concentration of the cytosol was estimated using the BCA assay with reference standard protein.
100uG/100uL of the receptor preparation was aliquoted per well. […] The plate was incubated at room temperature for 2.5 h. At the end of this incubation period 150 uL of ice-cold dextran coated charcoal (5% activated charcoal coated with 0.05% 69K dextran) was added to each well and the plate was immediately centrifuged at 99g for 5 minutes at 4°C. 200 uL of the supernatant solution was then removed for scintillation counting. Samples were counted to 2% or 10 minutes, whichever occurs first. […] Also, wells containing radioactivity but no cytosol were processed with charcoal to estimate unremovable DPM of [^3H]
Counts per minute (CPM) of radioactivity were automatically converted to disintegrated per minute (DPM) by the Beckman LS 7500 Scintillation Counter using a set of quenched standards to generate a H# for each sample.
For the generation of IC50 curves, % binding is plotted vs compound. […] For a description of these methods, see Hulme, E.C., ed. 1992. Receptor-Ligand Interactions: A Practical Approach. IRL Press, New York.(see especially chapter 8).

estrogen receptor [2] = molecular target: T1, estrogen receptor; assay: 2X VIT ERE Transfection Assay (Infection Luciferase Assay); type: cell-based; settings: 24 h; for % Activation with 1 nM 17β-estradiol: 1 uM compound + 1 nM 17β-estradiol (test for estrogen antagonism); for % Activation: compound alone (1 uM), compared to 17β-estradiol
Protocol: Chinese Hamster Ovary cells (CHO) which had been stably transfected with the human estrogen receptor were maintained in DMEM + 10% fetal bovine serum (FBS). 48h prior to treatment the growth medium was replaced with DMEM lacking phenol red + 10% dextran coated charcoal stripped FBS (treatment medium). Cells were plated at a density of 5000 cells/well in 96-well plates containing 200 µL of medium/well.
Reporter DNA (Promega plasmid pGL2 containing two tandem copies of the vitellogenin ERE in front of the minimal thymidine kinase promoter driving the luciferase gene) was combined with the B-galactosidase expression plasmid pCH110 (Pharmacia) and carrier DNA (pTZ18U) in the following ratio: • 10uG of reporter DNA • 5uG of pCH110DNA • 5 uG of pTZ18U • 20 uG of DNA/1 mL of transfection solution
20 uL of this mixture was added to each well of cells and remained on the cells for 16 h. […] Each treatment condition was performed on 8 wells (n=8) which were incubated for 24 h prior to the luciferase assay.
After removing the PBS, 25 uL of Promega lysis buffer was added to each well and allowed to stand at room temperature for 15 min, followed by 15 min at -80°C and 15 min at 37°C. 20 uL of lysate was transferred to an opaque 96 well plate for luciferase activity evaluation and the remaining lysate (5 uL) was used for the B-galactosidase activity evaluation (normalize transfection). The luciferan substrate (Promega) was added in 100 uL aliquots to each well automatically by the luminometer and the light produced (relative light units) was read 10 seconds after addition.
To the remaining 5 uL of lysate 45 uL of PBS was added. Then 50 uL of Promega B-galactosidase 2X assay buffer was added, mixed well and incubated at 37°C for 1 hour. A plate containing a standard curve (0.1 to 1.5 milliunits in triplicate) was set up for each experimental run. The plates were analyzed on a Molecular Devices spectrophotometric plate reader at 410 nm. The optical densities for the unknown were converted to milliunits of activity by mathematical extrapolation from the standard curve.
The luciferase data was generated as relative light units (RLUs) accumulated during a 10 second measurement and automatically transferred to a JMP (SAS Inc) file where background RLUs were subtracted. The B-galactosidase values were automatically imported into the file and these values were divided into the RLUs to normalize the data. The mean and standard deviations were determined from a n=8 for each treatment. […] These techniques are described by Tzukerman, M.T., Esty, A., Santiso-Mere, D., Danielian, P., Parker, M.G., Stein, R.B., Pike, J.W. and McDonnel, D.P. (1994). Human estrogen receptor transactivational capacity was determined by both cellular and promoter context and mediated by two functionally distinct intramolecular regions (see Molecular Endocrinology, 8:21-30).

EC50 (Ishikawa cells; Ishikawa cells, reference standards, read-out: ED50 values (95% C.I.), estrogenic activity by the alkaline phosphatase method) [nM]	Structure (SMILES)	Estrogen Receptor Affinity (reported as RBA: 17β-estradiol=100) (estrogen receptor [1])	% Activation (Compound + 1 nM 17β-estradiol) (Ishikawa cells) [%]	% Activation (Ishikawa cells) [%]	% Activation with 1 nM 17β-estradiol (estrogen receptor [2]) [%]	% Activation (estrogen receptor [2]) [%]
1.42	C[C@]12CC[C@@H]3c4ccc(O)cc4CC[C@H]3[C@@H]1CC[C@H]2O [17α-estradiol, reference compound]	–	–	–	–	–
–	CCN(CC)C(=O)/C=C/c1ccc(Cn2c(-c3ccc(O)cc3)c(C)c3cc(O)ccc32)cc1 [Example 7, (E)-N, N-Diethyl-3-{4-[5-hydroxy-2-(4-hydroxy-phenyl)-3-methyl-indol-1-ylmethyl]-phenyl}-acrylamide]	42	9	1	8	4
–	Cc1c(-c2ccc(O)cc2)n(Cc2ccc(/C=C/C(=O)NC(C)(C)C)cc2)c2ccc(O)cc12 [Example 8, 1(E)-N-tert-butyl-3-{4-[5-hydroxy-2-(4-hydroxy-phenyl)-3-methyl-indol-1-ylmethyl]-phenyl}-acrylamide]	40	22	10	78	6
–	Cc1c(-c2ccc(O)cc2)n(Cc2ccc(/C=C/C(=O)N3CCCC3)cc2)c2ccc(O)cc12 [Example 9, (E)-Pyrrolidino-3-{4-[5-hydroxy-2-(4-hydroxy-phenyl)-3-methyl-indol-1-ylmethyl]-phenyl}-acrylamide]	–	11	3	8	6
–	Cc1c(-c2ccc(O)cc2)n(Cc2ccc(/C=C/C(=O)N(C)C)cc2)c2ccc(O)cc12 [Example 10, (E)-N, N-Dimethyl-3-{4-[5-hydroxy-2-(4-hydroxy-phenyl)-3-methyl-indol-1-ylmethyl]-phenyl}-acrylamide]	20	19	6	2	1
–	CCCCN(CCCC)C(=O)/C=C/c1ccc(Cn2c(-c3ccc(O)cc3)c(C)c3cc(O)ccc32)cc1 [Example 11, (E)-N, N-Dibutyl-3-{4-[5-hydroxy-2-(4-hydroxy-phenyl)-3-methyl-indol-1-ylmethyl]-phenyl}-acrylamide]	80	11	6	12	8
–	CCCCN(C)C(=O)/C=C/c1ccc(Cn2c(-c3ccc(O)cc3)c(C)c3cc(O)ccc32)cc1 [Example 12, (E)-N-Butyl, N'-methyl-3-{4-[5-hydroxy-2-(4-hydroxy-phenyl)-3-methyl-indol-1-ylmethyl]-phenyl}-acrylamide]	114	16	7	24	13
–	Cc1c(-c2ccc(O)cc2)n(Cc2ccc(/C=C/C(=O)N3CCOCC3)cc2)c2ccc(O)cc12 [Example 13]	–	9	7	17	8
–	Cc1c(-c2ccc(O)cc2)n(Cc2ccc(/C=C/C(N)=O)cc2)c2ccc(O)cc12 [Example 14, (E)-3-{4-[5-hydroxy-2-(4-hydroxy-phenyl)-3-methyl-indol-1-ylmethyl]-phenyl}-acrylamide]	32	14	2	57	19
–	CNC(=O)/C=C/c1ccc(Cn2c(-c3ccc(O)cc3)c(C)c3cc(O)ccc32)cc1 [Example 15, (E)-N, Methyl-3-{4-[5-hydroxy-2-(4-hydroxy-phenyl)-3-methyl-indol-1-ylmethyl]-phenyl}-acrylamide]	53	5	0	31	15
–	Cc1c(-c2ccc(O)cc2)n(Cc2ccc(C#CCN(C)C)cc2)c2ccc(O)cc12 [Example 21, 2-(4-Hydroxy-phenyl)-3-methyl-1-[4-(3-N, N-dimethyl-1-yl-prop-1-ynyl)-benzyl]-1H-indol-5-ol]	53	34	34	34	34
–	O=C(c1ccc(OCCN2CCCCC2)cc1)c1c(-c2ccc(O)cc2)sc2cc(O)ccc12 [raloxifene, reference compound]	–	5	–	–	–
–	CC/C(=C(\c1ccccc1)c1ccc(OCCN(C)C)cc1)c1ccccc1 [tamoxifen, reference compound]	–	45	–	–	–
